Data: PMC6150735, “Molecular Docking-Based Design and Development of a Highly Selective Probe Substrate for UDP-glucuronosyltransferase 1A10” (Molecular Pharmaceutics, 2018)
Entries after “also recorded” stand apart in the source; their conditions may differ.

What was measured:
[1] = Absorbance spectra of coumarin derivatives; format: physicochemical; details: 10 μM, 100 mM Tris–HCl pH 7.4, 10% dimethyl sulfoxide
Procedure: (§1) The absorbance spectra of 10 μM coumarin derivatives at 100 mM Tris–HCl pH 7.4 containing 10% dimethyl sulfoxide were measured using a Hitachi U-2000 Spectrophotometer (Tokyo, Japan). Excitation and emission fluorescence spectra of 0.1 μM coumarin derivatives in 100 mM Tris-HCl pH 7.4 were measured using a Shimadzu RF-5000 spectrophotofluorometer (Tokyo, Japan). The excitation spectra was from 200 to 420 at 460 nm emission and the emission spectra was from 400 to 600 at 390 nm excitation (data in Supplementary Table S1 and Figures S1 and S2). The effect of pH on fluorescence intensity was determined at 405 nm excitation and 460 nm emission, in the presence of 1.5% trichloroacetic acid, 100 mM phosphate buffers at pH 5, 6, 7, 8, and 9, or 1.6 M glycine–NaOH pH 10.4.

[2] = Excitation and emission fluorescence spectra of coumarin derivatives; format: physicochemical; set-up: dose or concentration left out as unconfirmed
Procedure: as §1, with “Excitation and emission fluorescence spectra of 0.1 μM coumarin derivatives in 100 mM Tris-HCl pH 7.4 were measured using a Shimadzu RF-5000 spectrophotofluorometer (Tokyo, Japan).” left out

[3] = system: UGT1A1; assay: Recombinant human UGT screen: glucuronidation by UGT1A1; format: biochemical; details: 10 μM aglycone, recombinant UGTs
Procedure: Recombinant human UGTs 1A1, 1A3, 1A6, 1A7, 1A8, 1A9, 1A10, 2A1, 2A2, 2A3, 2B4, 2B10, 2B7, and 2B17 were produced, as His-tagged proteins, in baculovirus-infected insect cells as previously described.[37]−[39] The relative expression level of each of these recombinant UGTs was evaluated by immunodetection, using monoclonal antibody against the His-tag, as described elsewhere.[40] A numeric value of 1.0 was given to the expression level of UGT1A8 and the relative expression level of each of the other UGTs was related to this value. Normalized activities were obtained by dividing the glucuronidation rate values by the relative expression level of the tested UGT. […] The expression levels of the UGTs in the commercial samples could not be determined, so their protein concentration was used to calculate the reaction rate.
The incubation mixtures for glucuronidation assays contained 100 mM Tris-HCl buffer pH 7.4, 2.5 mM MgCl2, 0.5 mM UDPGA, recombinant UGT, or microsomes as the enzyme source and 0–15 μM of the test aglycone substrate. […] In subsequent experiments, the control samples lacked the enzyme source since it gave the highest fluorescence background. […] Fluorescence spectra (excitation 200–420 nm; emission 400–600 nm) or fluorescence decrease at 390 nm excitation and 460 nm emission, were measured in these preliminary experiments, using a Shimadzu RF-5000 spectrophotofluorometer. […]

[4] = system: human UGTs; assay: Recombinant human UGT screen: glucuronidation rates across human UGTs; format: biochemical; details: 10 μM aglycone
Procedure: Recombinant human UGTs 1A1, 1A3, 1A6, 1A7, 1A8, 1A9, 1A10, 2A1, 2A2, 2A3, 2B4, 2B10, 2B7, and 2B17 were produced, as His-tagged proteins, in baculovirus-infected insect cells as previously described.[37]−[39] The relative expression level of each of these recombinant UGTs was evaluated by immunodetection, using monoclonal antibody against the His-tag, as described elsewhere.[40] A numeric value of 1.0 was given to the expression level of UGT1A8 and the relative expression level of each of the other UGTs was related to this value. Normalized activities were obtained by dividing the glucuronidation rate values by the relative expression level of the tested UGT. In addition, UGTs 1A4, 2B10, and 2B15 were purchased from Corning Life Sciences (New York) and are marked, in Figure 5, with a “C” to indicate that they are commercial enzymes. The expression levels of the UGTs in the commercial samples could not be determined, so their protein concentration was used to calculate the reaction rate.
(§2) The incubation mixtures for glucuronidation assays contained 100 mM Tris-HCl buffer pH 7.4, 2.5 mM MgCl2, 0.5 mM UDPGA, recombinant UGT, or microsomes as the enzyme source and 0–15 μM of the test aglycone substrate. When the incubation mixtures contained microsomes, alamethicin was used at a final concentration of 12.5 μg/mL, but it was not included in the recombinant enzyme assays.[43] In the first experiments three negative control samples were tested, namely (i) without the substrate 7-hydroxycoumarin derivative, (ii) without the cofactor UDPGA, or (iii) without the enzyme source. In subsequent experiments, the control samples lacked the enzyme source since it gave the highest fluorescence background. Preliminary experiments were done under different conditions than most of the later assays, namely in 2.5 mL of 100 mM phosphate buffer pH 7.4, containing 500 μg pig liver microsomes, 1.0 μM compound 6 and 0.5 mM UDPGA, at room temperature. Fluorescence spectra (excitation 200–420 nm; emission 400–600 nm) or fluorescence decrease at 390 nm excitation and 460 nm emission, were measured in these preliminary experiments, using a Shimadzu RF-5000 spectrophotofluorometer.
(§3) Most of the glucuronidation assays were carried out in 96 multiwell plate format, and incubations were carried out in 100 μL and at 37 °C, in the presence of Tris–HCl buffer pH 7.4, UDPGA, and the tested 7-hydroxycoumarin derivative, at the indicated concentrations. Fluorescence decline in the multiwell plate experiments was monitored every other minute, for 40 min, using an excitation filter at 405 nm and detection at 460 nm, in a Victor2 1420 Multilabel counter (PerkinElmer, Life Sciences, Turku, Finland). The fluorescence values were transformed into molarity using the aglycone substrates for making the respective standard curves. Slopes of the substrate concentration decrease per minute were calculated using linear regression analysis, in which the linear part of the kinetic assay indicated the glucuronidation rate. Enzyme catalyzed glucuronidation rate was calculated by subtracting the blank value from the full reaction value. The intra-assay variability of the kinetic assays was 6% when compound 6 was used as the aglycone substrate. Kinetic analyses were also performed in the same 96 multiwell plates format, with excitation filter at 405 nm and detection at 460 nm, using 6–8 different substrate concentrations per substrate and two different protein concentrations for both the wild-type and mutant UGT1A10. The higher concentrations, 13.5 mg/L for UGT1A10 and 12.0 mg/L for the UGT1A10 mutant, were used when the substrates were HFC, compounds 4 and 6, whereas the lower protein concentrations, 6.75 and 6.0 mg/L for UGT1A10 and the mutant, respectively, were used when the substrates were compounds 1, 2, 3, and 5.

[5] = system: human liver microsomes (HLM); assay: Glucuronidation by human liver microsomes (HLM); format: in vitro ADME; details: 10 μM aglycone
Procedure: (§4) A commercial HLM pool (cat no:452210, BD Gentest, Bedford, MA) and human intestine microsomes (HIM) pool (lot. no 1110189, XenoTech, Kansas City, KS) were purchased. Pig liver samples were prepared from untreated female pigs that were used for practicing surgical procedures at the University of Kuopio (currently: University of Eastern Finland, Kuopio campus). Other animal liver microsomes were prepared as described previously.[41] The Ethics Committee for Animal Experiments, University of Kuopio, approved these experiments.
as §2, §3

[6] = target: T1, UGT1A10 mutant 1A10-H210M (Homo sapiens, UniProt Q9HAW8, H210M); assay: Glucuronidation kinetics by UGT1A10 mutant 1A10-H210M (fluorescence decrease, 96-well plate); format: biochemical; details: mutant versus wild-type UGT1A10
T1 construct: His-tag; made in house; host or cells: baculovirus-infected SF9 insect cells
T1 sequence (Q9HAW8 26-530 H210M): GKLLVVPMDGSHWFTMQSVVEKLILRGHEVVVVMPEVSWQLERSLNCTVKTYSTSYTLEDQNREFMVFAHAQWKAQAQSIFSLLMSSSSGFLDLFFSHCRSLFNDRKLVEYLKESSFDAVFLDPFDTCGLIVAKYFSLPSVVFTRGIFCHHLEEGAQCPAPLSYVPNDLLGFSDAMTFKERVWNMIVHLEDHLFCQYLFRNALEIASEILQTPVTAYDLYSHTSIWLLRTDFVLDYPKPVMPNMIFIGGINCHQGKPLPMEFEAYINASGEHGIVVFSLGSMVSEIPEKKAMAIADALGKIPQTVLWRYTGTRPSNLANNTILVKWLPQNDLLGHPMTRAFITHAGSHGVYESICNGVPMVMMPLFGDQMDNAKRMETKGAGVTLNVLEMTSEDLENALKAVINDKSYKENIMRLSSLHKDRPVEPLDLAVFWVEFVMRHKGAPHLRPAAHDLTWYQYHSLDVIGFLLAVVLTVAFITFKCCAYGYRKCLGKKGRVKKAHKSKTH
Procedure: The UGT1A10 mutant 1A10-H210 M was prepared according to the QuikChange methodology, using the cloned UGT1A10 in pFastBac[42] as a template and the following two oligonucleotides:
The entire coding sequence of UGT1A10 in the mutant clone was sequenced, and subsequently, recombinant baculovirus was prepared and used to express the mutant enzyme in baculovirus-infected SF9 insect cells.
as §2, with “Preliminary experiments were done under different conditions than most of the later assays, namely in 2.5 mL of 100 mM phosphate buffer pH 7.4, containing 500 μg pig liver microsomes, 1.0 μM compound 6 and 0.5 mM UDPGA, at room temperature.” left out
Most of the glucuronidation assays were carried out in 96 multiwell plate format, and incubations were carried out in 100 μL and at 37 °C, in the presence of Tris–HCl buffer pH 7.4, UDPGA, and the tested 7-hydroxycoumarin derivative, at the indicated concentrations. Fluorescence decline in the multiwell plate experiments was monitored every other minute, for 40 min, using an excitation filter at 405 nm and detection at 460 nm, in a Victor2 1420 Multilabel counter (PerkinElmer, Life Sciences, Turku, Finland). The fluorescence values were transformed into molarity using the aglycone substrates for making the respective standard curves. […] Enzyme catalyzed glucuronidation rate was calculated by subtracting the blank value from the full reaction value. […]

[7] = system: human intestinal microsomes (HIM); assay: Glucuronidation by human intestinal microsomes (HIM); format: in vitro ADME; details: 10 μM aglycone
Procedure: as §4, §2, §3

| Amax [1] [nm] | ε abs [1] [M⁻¹ cm⁻¹] | Fluorescence EMmax [2] [nm] | Fluorescence EXmax [2] [nm] | Change of Km by the H210M mutation (in words) [6] | Glucuronidation rate, HLM compared with HIM (in words) [7] | Compound | Glucuronidation rate by UGT1A1 relative to the corresponding UGT1A10 rate [3] | Selectivity among human UGTs ([4]; other UGTs at very low rates) | Glucuronidation by HLM (in words) [5] | UGT(s) that primarily glucuronidate the substrate ([4]; control substrates) |
| --- | --- | --- | --- | --- | --- | --- | --- | --- | --- | --- |
| 344 | 19000 | 466 |  |  |  | O=c1oc2cc(O)ccc2cc1-c1ccc(F)cc1 [Compound 1, 7-hydroxy-3-(4-fluorophenyl)-2H-chromen-2-one] | about 40% |  |  |  |
| 352 | 20000 | 475 | 395 | considerably increased |  | O=c1oc2cc(O)ccc2cc1-c1ccc(O)cc1 [Compound 2, 7-hydroxy-3-(4-hydroxyphenyl)-2H-chromen-2one] |  | selective for UGT1A10 | not glucuronidated by HLM at all, or only at very low rates; also recorded: very low or below the detection limit |  |
| 350 | 17300 | 472 | 368 |  |  | COc1ccc(-c2cc3ccc(O)cc3oc2=O)cc1 [Compound 3, 7-hydroxy-3-(4-methoxyphenyl)coumarin] | ~20% |  |  |  |
|  |  |  |  | increase | much higher rates by HLM than by HIM | O=c1cc(C(F)(F)F)c2ccc(O)cc2o1 [HFC, 4-(trifluoromethyl)-7-hydroxycoumarin, reference compound] |  |  |  | UGT1A6 and UGT1A10 |
